Source: patent publication US11654199B2 (BOLT BIOTHERAPEUTICS, INC., priority 2019, dated 2023)

Columns and labels:
human TLR7 = biological target: T1, human TLR7 (Homo sapiens, UniProt Q9NYK1); test: HEK293 NFKB reporter assay, human TLR7; format: cell-based; details: HEK293 NFKB reporter cells expressing human TLR7; read-out: HEK293 hTLR7 EC50
T1 construct: host or cells: HEK293 reporter cells
T1 sequence (Q9NYK1 27-1049): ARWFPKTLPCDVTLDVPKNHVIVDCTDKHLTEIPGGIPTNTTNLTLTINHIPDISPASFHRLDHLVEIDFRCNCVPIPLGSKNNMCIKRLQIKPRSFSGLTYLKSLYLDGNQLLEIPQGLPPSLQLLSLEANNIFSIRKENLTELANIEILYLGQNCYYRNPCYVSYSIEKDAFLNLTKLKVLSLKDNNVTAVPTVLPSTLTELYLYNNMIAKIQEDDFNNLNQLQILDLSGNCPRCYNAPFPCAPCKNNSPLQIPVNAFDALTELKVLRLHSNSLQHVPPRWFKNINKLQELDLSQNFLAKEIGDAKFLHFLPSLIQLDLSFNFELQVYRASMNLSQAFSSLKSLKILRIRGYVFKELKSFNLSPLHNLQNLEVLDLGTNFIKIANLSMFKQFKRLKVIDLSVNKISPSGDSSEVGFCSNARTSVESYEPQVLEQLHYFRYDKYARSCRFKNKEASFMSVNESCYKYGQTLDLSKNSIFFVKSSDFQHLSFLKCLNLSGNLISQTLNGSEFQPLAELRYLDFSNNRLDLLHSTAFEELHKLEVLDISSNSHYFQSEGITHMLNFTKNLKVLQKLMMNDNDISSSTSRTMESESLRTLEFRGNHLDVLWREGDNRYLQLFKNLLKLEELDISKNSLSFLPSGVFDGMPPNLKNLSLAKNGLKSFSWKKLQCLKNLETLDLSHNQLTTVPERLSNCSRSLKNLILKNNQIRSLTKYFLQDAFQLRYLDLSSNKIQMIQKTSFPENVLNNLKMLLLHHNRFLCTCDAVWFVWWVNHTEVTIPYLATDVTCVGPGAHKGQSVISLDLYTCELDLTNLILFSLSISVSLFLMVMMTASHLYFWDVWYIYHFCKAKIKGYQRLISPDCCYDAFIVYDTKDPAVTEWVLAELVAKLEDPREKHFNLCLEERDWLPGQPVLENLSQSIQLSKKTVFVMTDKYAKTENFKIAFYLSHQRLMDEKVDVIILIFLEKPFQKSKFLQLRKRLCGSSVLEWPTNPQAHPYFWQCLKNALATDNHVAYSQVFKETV
Method: (§1) Each compound was synthesized, purified, and characterized by mass spectrometry and shown to have the mass indicated. Additional experimental procedures are found in the Examples. Activity against HEK293 NFKB reporter cells expressing human TLR7 or human TLR8 was measured according to Example 202.
(§2) HEK293 reporter cells expressing human TLR7 or human TLR8 were purchased from Invivogen and vendor protocols were followed for cellular propagation and experimentation. Briefly, cells were grown to 80-85% confluence at 5% CO2 in DMEM supplemented with 10% FBS, Zeocin, and Blasticidin. Cells were then seeded in 96-well flat plates at 4×10^4 cells/well with substrate containing HEK detection medium and immunostimulatory molecules. Activity was measured using a plate reader at 620-655 nm wavelength.

human TLR8 = biological target: T2, human TLR8 (Homo sapiens, UniProt Q9NR97); test: HEK293 NFKB reporter assay, human TLR8; format: cell-based; details: HEK293 NFKB reporter cells expressing human TLR8; read-out: HEK293 hTLR8 EC50
T2 construct: host or cells: HEK293 reporter cells
T2 sequence (Q9NR97 27-1041): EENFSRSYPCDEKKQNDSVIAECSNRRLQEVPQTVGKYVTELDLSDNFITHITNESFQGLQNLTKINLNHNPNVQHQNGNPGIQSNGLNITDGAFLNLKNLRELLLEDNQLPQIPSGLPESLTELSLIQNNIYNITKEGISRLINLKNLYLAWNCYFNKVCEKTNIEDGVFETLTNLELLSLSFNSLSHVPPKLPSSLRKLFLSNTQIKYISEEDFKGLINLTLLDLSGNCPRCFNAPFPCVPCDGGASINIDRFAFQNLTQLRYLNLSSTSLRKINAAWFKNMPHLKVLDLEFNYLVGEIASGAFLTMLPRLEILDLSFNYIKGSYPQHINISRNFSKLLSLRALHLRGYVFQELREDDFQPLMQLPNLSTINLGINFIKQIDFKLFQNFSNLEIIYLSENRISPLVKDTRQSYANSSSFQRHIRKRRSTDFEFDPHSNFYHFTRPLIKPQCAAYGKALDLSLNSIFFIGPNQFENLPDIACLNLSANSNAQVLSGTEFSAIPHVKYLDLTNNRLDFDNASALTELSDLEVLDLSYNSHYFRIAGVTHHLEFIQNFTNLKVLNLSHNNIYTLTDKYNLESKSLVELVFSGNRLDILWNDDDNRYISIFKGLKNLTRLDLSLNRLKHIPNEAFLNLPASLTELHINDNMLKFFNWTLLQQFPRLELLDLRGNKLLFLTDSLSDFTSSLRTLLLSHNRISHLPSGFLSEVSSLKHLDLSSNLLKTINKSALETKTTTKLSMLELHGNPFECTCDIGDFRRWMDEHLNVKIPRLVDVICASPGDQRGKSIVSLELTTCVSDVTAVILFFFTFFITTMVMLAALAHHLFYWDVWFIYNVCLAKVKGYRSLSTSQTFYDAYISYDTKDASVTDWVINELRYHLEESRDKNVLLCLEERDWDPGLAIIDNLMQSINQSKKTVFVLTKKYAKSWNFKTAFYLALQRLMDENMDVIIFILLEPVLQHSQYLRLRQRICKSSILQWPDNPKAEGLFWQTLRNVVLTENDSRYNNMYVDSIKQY
Method: as §1, §2

Row | EC50 (human TLR7) | EC50 (human TLR8) | Compound
1 | 6.6 µM | 0.953 µM | CCCN(OCC)C(=O)C1=Cc2sc(CCC3CNC3)cc2N=C(N)C1 [TAZ-195]
2 | 3.82 µM | 1.38 µM | CCCN(OCC(F)(F)F)C(=O)C1=Cc2sccc2N=C(N)C1 [TAZ-103]
3 | 3.17 µM | 1.44 µM | CCCN(Cc1cnc(CN)c(C(F)(F)F)c1)C(=O)C1=Cc2sccc2N=C(N)C1 [TAZ-104]
4 | 0.793 µM | 0.384 µM | CCCN(CCC)C(=O)C1=Cc2sc(CCCCCN(C)C)cc2N=C(N)C1 [TAZ-102]
5 | > 9 µM | > 9 µM | CCCN(C[C@H]1C[C@@H](CN)C1)C(=O)C1=Cc2sccc2N=C(N)C1 [TAZ-49]
6 | > 9 µM | > 9 µM | CCCN(CC12CC(CN)(C1)C2)C(=O)C1=Cc2sccc2N=C(N)C1 [TAZ-41]
7 | > 9 µM | 3.62 µM | CCCN(CCC)C(=O)C1=Cc2sc(CO)cc2N=C(N)C1 [TAZ-99]
8 | > 9 µM | 2.27 µM | CCCN(C(=O)C1=Cc2sccc2N=C(N)C1)C(C)c1ccc(CN)cc1 (stereo not shown) [TAZ-88]
9 | 2.99 µM | 4.8 µM | CCCN(CCCNC(=O)OC1CCC1)C(=O)C1=Cc2sc(CN3CCC(Nc4ccc(CN)cc4)C3)cc2N=C(N)C1 (stereo not shown) [TAZ-190]
10 | 3.85 µM | 3.47 µM | CCCN(CCC)C(=O)C1=Cc2sc(CCCCCNC(=O)CCOC)cc2N=C(N)C1 [TAZ-108]
11 | 5.06 µM | 2.74 µM | CCCN(CCC(F)(F)F)C(=O)C1=Cc2sccc2N=C(N)C1 [TAZ-64]
12 | 3.15 µM | 2.83 µM | CCCN(OCC)C(=O)C1=Cc2sc(C#CCCCNC(=O)OC(C)(C)C)cc2N=C(N)C1 [TAZ-72]
13 | 3.76 µM | 3.24 µM | CCCN(OCC)C(=O)C1=Cc2sc(CN3CC[C@@H]4[C@H](C3)CN4C(=O)OC(C)(C)C)cc2N=C(N)C1 [TAZ-228]
14 | > 9 µM | > 9 µM | CCCN(CC12CC(CN(C)C)(C1)C2)C(=O)C1=Cc2sccc2N=C(N)C1 [TAZ-47]
15 | 2.46 µM | 0.146 µM | CCCN(OCC)C(=O)C1=Cc2sc(CCCN3CCNCC3)cc2N=C(N)C1 [TAZ-244]
16 | 0.95 µM | 0.633 µM | CCCN(CC1CCC1)C(=O)C1=Cc2sc(CCCCCN)cc2N=C(N)C1 [TAZ-126]
17 | 4.39 µM | 2.29 µM | CCCN(OCC)C(=O)C1=Cc2sc(CN3CC[C@H]4NC[C@H]4C3)cc2N=C(N)C1 [TAZ-227]
18 | 5.72 µM | 3.39 µM | CCCN(CCCNC(=O)OC1CCC1)C(=O)C1=Cc2sc(CN3Cc4ccc(NC(=O)CCN)cc4C3)cc2N=C(N)C1 [TAZ-189]
19 | 0.922 µM | 0.93 µM | CCCN(OCC)C(=O)C1=Cc2sc(CC3CN(C(=O)OC(C)(C)C)C3)cc2N=C(N)C1 [TAZ-184]
20 | 5.08 µM | 2.03 µM | CCCN(OCC)C(=O)C1=Cc2sc(CCCCCNC(=O)OC(C)(C)C)cc2N=C(N)C1 [TAZ-75]

Row | EC50 (human TLR7) | EC50 (human TLR8) | Compound
21 | 5.57 µM | 0.848 µM | CCCN(CCC)C(=O)C1=Cc2sc(CN3CCN(C)CC3)cc2N=C(N)C1 [TAZ-129]
22 | 4.45 µM | 0.868 µM | CCCN(OCC)C(=O)C1=Cc2sc(CC3CN(C(C)=O)C3)cc2N=C(N)C1 [TAZ-252]
23 | 3.68 µM | 1.37 µM | CCCN(OCC)C(=O)C1=Cc2sc(CN3Cc4ccc(NC(=O)CCNC(=O)OC(C)(C)C)cc4C3)cc2N=C(N)C1 [TAZ-202]
24 | 0.534 µM | 2.24 µM | CCCN(OCCNC(=O)CC(C)(C)C)C(=O)C1=Cc2sc(CCCCCN)cc2N=C(N)C1 [TAZ-149]
25 | 0.101 µM | 0.84 µM | CCCN(CCCNC(=O)OC1CCC1)C(=O)C1=Cc2sc(CC3CN(C(=O)OC(C)(C)C)C3)cc2N=C(N)C1 [TAZ-182]
26 | 6.12 µM | 6.7 µM | CCCN(OCC)C(=O)C1=Cc2sc(-c3cn[nH]c3)cc2N=C(N)C1 [TAZ-221]
27 | 3.36 µM | 1.52 µM | CCCN(OCC)C(=O)C1=Cc2sc(C#CC3CNC3)cc2N=C(N)C1 [TAZ-193]
28 | 0.362 µM | 0.64 µM | CCCN(OC(C)C)C(=O)C1=Cc2sc(CC3CN(C(=O)OC(C)(C)C)C3)cc2N=C(N)C1 [TAZ-249]
29 | 0.909 µM | 3.19 µM | CCCN(CCC)C(=O)C1=Cc2sc(CNC(=O)CCN)cc2N=C(N)C1 [TAZ-90]
30 | 0.031 µM | 1.61 µM | CCCN(OCC)C(=O)C1=Cc2sc(CCC3(O)CN(C(=O)OC(C)(C)C)C3)cc2N=C(N)C1 [TAZ-199]
31 | 8.52 µM | > 9 µM | CCCN(CCC)C(=O)C1=Cc2sc(CCCCNC(=O)OC(C)(C)C)cc2N=C(N)C1 [TAZ-36]
32 | 3.9 µM | 0.059 µM | NCc1ccc(CN(CCC(F)(F)F)C(=O)C2=Cc3sccc3N=C(N)C2)cc1 [TAZ-77]
33 | 0.38 µM | 3.58 µM | CCCN(CCCNC(=O)C(C)(C)C)C(=O)C1=Cc2sc(CCCCCNC(=O)OC(C)(C)C)cc2N=C(N)C1 [TAZ-141]
34 | 0.586 µM | 3.01 µM | CCCN(CCCNC(=O)OC(C)(C)C)C(=O)C1=Cc2sc(CCCCCN)cc2N=C(N)C1 [TAZ-133, tert-butyl (3-(5-amino-2-(5-aminopentyl)-N-propyl-6H-thieno[3,2-b]azepine-7-carboxamido)propyl)carbamate]
35 | > 9 µM | > 9 µM | CCCN(CCC)C(=O)C1=Cc2sc(C#CCCCNC(=O)OC(C)(C)C)cc2N=C(N)C1 [TAZ-6, tert-butyl N-[5-[5-amino-7-(dipropylcarbamoyl)-6H-thieno[3,2-b]azepin-2-yl]pent-4-ynyl] carbamate]
36 | > 9 µM | > 9 µM | CCCN(CCC)C(=O)C1=Cc2sc(CN3CCN(C(=O)OC(C)(C)C)CC3)cc2N=C(N)C1 [TAZ-43]
37 | 4.25 µM | 5.46 µM | CCCN(OCC)C(=O)C1=Cc2sc(CN3CCC4(CCNC4)CC3)cc2N=C(N)C1 [TAZ-240]
38 | 0.112 µM | 0.286 µM | CCCN(OCCNC(=O)OC1CCC1)C(=O)C1=Cc2sc(CC3CNC3)cc2N=C(N)C1 [TAZ-238, cyclobutyl N-[2-[[5-amino-2-(azetidin-3-ylmethyl)-6H-thieno[3,2-b]azepine-7-carbonyl]-propyl-amino]oxyethyl]carbamate]
39 | 4.42 µM | 4.24 µM | CCCN(CCC)C(=O)C1=Cc2sc(COCCCNC(=O)OC(C)(C)C)cc2N=C(N)C1 [TAZ-66]
40 | 3.26 µM | 3.25 µM | CCCN(CCCNC(=O)OC1CCC1)C(=O)C1=Cc2sc(CNC(=O)c3ccccc3)cc2N=C(N)C1 [TAZ-203]

Row | Compound | EC50 (human TLR7) | EC50 (human TLR8)
41 | CCCN(OCC)C(=O)C1=Cc2sc(CN3CC4CCC(C3)N4C(=O)OC(C)(C)C)cc2N=C(N)C1 [TAZ-241] | 2.81 µM | 3.06 µM
